From patent publication US6369069B1 (Aventis Pharma Deutschland GmbH, priority 1998, dated 2002)

tested on: Na^+-dependent Cl^−/HCO3^− exchanger (NCBE); experiment: Inhibition of the Na+-dependent Cl−/HCO3− exchanger (NCBE) in human endothelial cells (pHi recovery, BCECF fluorescence, FLIPR); type: cell-based; conditions: 10 μM
Procedure: Inhibition of the Na^+-dependent Cl^−/HCO3^− exchanger (NCBE) in human endothelial cells
Human endothelial cells (ECV-304) were detached form culture flasks with the aid of trypsin/EDTA buffer (0.05/0.02% in phosphate buffer) and, after centrifugation (100 g, 5 min), taken up in a buffered saline solution (mmol/l: 115 NaCl, 20 NH4Cl, 5 KCl, 1 CaCl2, 1 MgSO4, 20 N-(2-hydroxyethyl)-piperazine-N[…]-2-ethanesulfonic acid (HEPES), 5 glucose and 1 g/l of bovine serum albumin; pH 7.4). This cell suspension was incubated at 37 °C. for 20 min with 5 μM BCECF acetoxymethyl ester. The cells were then washed and resuspended in a sodium- and bicarbonate-free buffer solution (mmol/l: 5 HEPES, 133.8 choline chloride, 4.7 KCl, 1.25 MgCl2, 0.97 K2HPO4, 0.23 KH2PO4, 5 glucose; pH 7.4).
For the subsequent fluorescence measurement in the FLIPR (Fluorescent Imaging Plate Reader), 100 μl of this cell suspension in each case containing 20,000 cells were added by pipette per well of a 96-well microtiter plate and this microtiter plate was centrifuged (100 g, 5 min). In the FLIPR, 100 μl of buffer solution in each case were then removed from a further prepared microtiter plate and added by pipette to each of the 96 wells of the measuring plate. In this case, for a 100% control, i.e. a recovery of the intracellular pH (pHi) by means of the NCBE, a bicarbonate- and sodium-containing buffer solution (mmol/l: 5 HEPES, 93.8 NaCl, 40 NaHCO3, 4.7 KCl, 1.25 CaCl2, 1.25 MgCl2, 0.97 Na2HPO4, 0.23 NaH2PO4, 5 glucose; pH 7.4) which contained 50 μM HOE 642 was used. For a 0% control, i.e. no pHi recovery at all, a bicarbonate-free, sodium-containing buffer solution (mmol/l: 5 HEPES, 133.8 NaCl, 4.7 KCl, 1.25 CaCl2, 1.25 MgCl2, 0.97 Na2HPO4, 0.23 NaH2PO4, 5 glucose; pH 7.4) to which 50 μM HOE 642 were also added was employed. The compounds according to the invention were added in various concentrations of the sodium- and bicarbonate-containing solution. After addition of the buffer solutions to the dye-loaded acidified cells situated in the measuring plate, the increase in the fluorescence intensity which corresponded to an increase in the pHi was determined in each well of the microtiter plate.
The kinetics were in this case recorded at 35° C. over a period of 2 minutes. The increase in the fluorescence intensities for different concentrations of the compounds according to the invention was related to the two controls and from this the inhibitory action of the substances was determined.

Question: For `COc1cccc(CN(Cc2ccc(-c3ccccc3S(=O)(=O)NC#N)cc2)C(=O)NCc2ccccc2)c1` [Example 303], which “Residual activity % of the NCBE at 10 μM” value is on record?
Answer: 65.8%

Question: How did the “Residual activity % of the NCBE at 10 μM” value turn out when `N#CNS(=O)(=O)c1ccccc1-c1ccc(CN(C(=O)CCOc2ccccc2)C2CCc3ccccc32)cc1` (stereo not drawn) [Example 344] was run?
Answer: 52.2%

Question: `N#CNS(=O)(=O)c1ccccc1-c1ccc(CN(Cc2ccc(C(F)(F)F)cc2)C(=O)c2ccccc2F)cc1` [Example 99] was tested. Which “Residual activity % of the NCBE at 10 μM” value did it give?
Answer: 89.6%

Question: Which “Residual activity % of the NCBE at 10 μM” value does the source give for `N#CNS(=O)(=O)c1ccccc1-c1ccc(CN(Cc2cccs2)C(=O)CCCCc2ccccc2)cc1` [Example 253] here?
Answer: 35.3%

Question: Which “Residual activity % of the NCBE at 10 μM” value does the source give for `CC(C)(C)OC(=O)C(c1ccccc1)N(Cc1ccc(-c2ccccc2S(=O)(=O)NC#N)cc1)C(=O)Cc1cccs1` (stereo not drawn) [Example 269] here?
Answer: 94.4%

Question: For `C=CCOC(=O)N(CCO)Cc1ccc(-c2ccccc2S(=O)(=O)NC#N)cc1` [Example 44], which “Residual activity % of the NCBE at 10 μM” value is on record?
Answer: 82.6%

Question: With `CC(C)(C)OC(=O)C(c1ccccc1)N(Cc1ccc(-c2ccccc2S(=O)(=O)NC#N)cc1)C(=O)CCc1cccs1` (stereo not drawn) [Example 287] as the compound, how does the “Residual activity % of the NCBE at 10 μM” value read?
Answer: 51.1%

Question: How did the “Residual activity % of the NCBE at 10 μM” value turn out when `COc1ccccc1C(=O)N(Cc1ccc(-c2ccccc2S(=O)(=O)NC#N)cc1)Cc1cccc(-c2ccccc2)c1` [Example 337] was run?
Answer: 51.2%

Question: Which “Residual activity % of the NCBE at 10 μM” value does the source give for `N#CNS(=O)(=O)c1ccccc1-c1ccc(CN(CC2CCCCC2)C(=O)C(NC(=O)OCc2ccccc2)c2ccccc2)cc1` (stereo not drawn) [Example 265] here?
Answer: 68.9%

Question: With `N#CNS(=O)(=O)c1ccccc1-c1ccc(CN(Cc2cccc(Cl)c2Cl)C(=O)CCOc2ccccc2)cc1` [Example 339] as the compound, how does the “Residual activity % of the NCBE at 10 μM” value read?
Answer: 46.8%

Question: With `N#CNS(=O)(=O)c1ccccc1-c1ccc(CN(C(=O)CC2CCCC2)C2CCCc3ccccc32)cc1` (stereo not drawn) [Example 365] as the compound, how does the “Residual activity % of the NCBE at 10 μM” value read?
Answer: 45.1%

Question: With `CC(C)(C)c1ccc(C(=O)N(CCO)Cc2ccc(-c3ccccc3S(=O)(=O)NC#N)cc2)cc1` [Example 32] as the compound, how does the “Residual activity % of the NCBE at 10 μM” value read?
Answer: 68.0%

Question: For `COc1cccc(CN(Cc2ccc(-c3ccccc3S(=O)(=O)NC#N)cc2)C(=O)c2cc3ccccc3s2)c1` [Example 76], which “Residual activity % of the NCBE at 10 μM” value is on record?
Answer: 87.3%

Question: How did the “Residual activity % of the NCBE at 10 μM” value turn out when `Cc1cccc(CN(Cc2ccc(-c3ccccc3S(=O)(=O)NC#N)cc2)C(=O)CC2CCCCC2)c1` [Example 351] was run?
Answer: 27.2%

Question: Which “Residual activity % of the NCBE at 10 μM” value does the source give for `N#CNS(=O)(=O)c1ccccc1-c1ccc(CN(CC2CCCO2)C(=O)Cc2cccs2)cc1` (stereo not drawn) [Example 318] here?
Answer: 16.4%

Question: Which “Residual activity % of the NCBE at 10 μM” value does the source give for `COc1ccc(CC(=O)N(Cc2ccc(-c3ccccc3S(=O)(=O)NC#N)cc2)Cc2cc(OC)c(OC)c(OC)c2)cc1` [Example 176] here?
Answer: 83.9%

Question: `COC(=O)C(Cc1ccccc1)N(Cc1ccc(-c2ccccc2S(=O)(=O)NC#N)cc1)C(=O)C(=O)c1cccs1` (stereo not drawn) [Example 201] was tested. Which “Residual activity % of the NCBE at 10 μM” value did it give?
Answer: 69.6%

Question: Which “Residual activity % of the NCBE at 10 μM” value does the source give for `N#CNS(=O)(=O)c1ccccc1-c1ccc(CN(Cc2ccccc2Cl)C(=O)Cc2ccccc2)cc1` [Example 121] here?
Answer: 72.1%

same assay, conditions: 10 μM compound; human endothelial cells (ECV-304); related to 100% and 0% pHi recovery controls

Question: For `N#CNS(=O)(=O)c1ccccc1-c1ccc(CN(Cc2ccccc2)C(=O)Cc2cccs2)c(Cl)c1` [Example 554, 4′-{[Benzyl-(2-thiophen-2-ylacetyl)amino]methyl}-3′-chlorobiphenyl-2-sulfonylcyanamide], which “Residual activity of the NCBE at 10 μM” value is on record?
Answer: 15%

same assay, conditions: compound at 10 μM; R(3) to R(7) hydrogen series

Question: With `CCC(CC)(CN(Cc1ccc(-c2ccccc2S(=O)(=O)NC#N)cc1)C(=O)Cc1cccs1)c1ccc(OC)cc1` [Example 395] as the compound, how does the “Residual activity % of the NCBE at 10 μM” value read?
Answer: 50.9%

Question: How did the “Residual activity % of the NCBE at 10 μM” value turn out when `N#CNS(=O)(=O)c1ccccc1-c1ccc(CN(CC2(c3ccccc3)CCCC2)C(=O)Cc2cccs2)cc1` [Example 392] was run?
Answer: 55.6%

same assay, conditions: compound at 10 μM; sub-table with R7 substituent

Question: With `Cc1ccc(-c2ccc(CN(Cc3cccc4ccccc34)C(=O)Cc3ccsc3)cc2)c(S(=O)(=O)NC#N)c1` [Example 538] as the compound, how does the “Residual activity % of the NCBE at 10 μM” value read?
Answer: 80.3%

Question: `Cc1ccc(-c2ccc(CN(Cc3ccccc3)C(=O)Cc3ccsc3)cc2)c(S(=O)(=O)NC#N)c1` [Example 537] was tested. Which “Residual activity % of the NCBE at 10 μM” value did it give?
Answer: 54.4%

Question: Which “Residual activity % of the NCBE at 10 μM” value does the source give for `Cc1ccc(-c2ccc(CN(Cc3ccccc3Cl)C(=O)Cc3cccs3)cc2)c(S(=O)(=O)NC#N)c1` [Example 516] here?
Answer: 98.7%
